Target: T1, PRKCH (PKC eta) (Homo sapiens, UniProt P24723)
T1 construct: purchased Thermo Fisher Scientific (Life Technologies) SelectScreen
Assay: SelectScreen Z'LYTE
Assay type: biochemical
In short: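 SelectScreen broad panel; activity (Z'LYTE, Adapta) plus binding formats. ATP: Km app for CSF1R Z'LYTE; 10 for CAMK1 Adapta. Readout = % per kinase.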

T1 sequence (P24723 whole entry): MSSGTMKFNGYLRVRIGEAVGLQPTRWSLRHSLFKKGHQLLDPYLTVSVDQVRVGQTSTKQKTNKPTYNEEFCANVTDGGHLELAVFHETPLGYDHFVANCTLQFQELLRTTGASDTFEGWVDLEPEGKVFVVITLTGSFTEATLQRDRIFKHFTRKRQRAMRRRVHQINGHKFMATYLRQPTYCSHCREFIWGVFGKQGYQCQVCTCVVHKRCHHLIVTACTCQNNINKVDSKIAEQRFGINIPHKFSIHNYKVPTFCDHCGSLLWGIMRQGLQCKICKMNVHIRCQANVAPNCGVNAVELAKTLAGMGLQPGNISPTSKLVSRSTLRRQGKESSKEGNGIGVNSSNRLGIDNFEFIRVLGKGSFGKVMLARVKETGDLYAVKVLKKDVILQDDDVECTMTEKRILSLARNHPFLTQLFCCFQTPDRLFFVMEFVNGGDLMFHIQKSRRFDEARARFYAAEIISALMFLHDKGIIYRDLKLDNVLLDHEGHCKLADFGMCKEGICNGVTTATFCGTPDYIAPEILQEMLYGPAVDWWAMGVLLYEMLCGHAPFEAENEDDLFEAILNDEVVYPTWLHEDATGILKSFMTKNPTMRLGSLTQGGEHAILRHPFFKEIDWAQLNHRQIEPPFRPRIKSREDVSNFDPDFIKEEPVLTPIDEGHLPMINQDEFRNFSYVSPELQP

How did the inhibition at 1 µM turn out when CN(C(=O)CN1CCOCC1)c1ccc2sc3c(-c4cccc5c(=O)cc(N6CC7CCC(C6)O7)oc45)cccc3c2c1 [NU5455] was run?
The inhibition at 1 µM was -4.6%.

Reference: article PMC6934184, “Selective DNA-PKcs inhibition extends the therapeutic index of localized radiotherapy and chemotherapy” (The Journal of Clinical Investigation, 2019)
